Source: patent publication US4837371A, “Process for concentration of an aqueous solution of amino acid” (Mitsui Toatsu Chemicals, Inc., priority 1986, dated 1989)
Where two headings read alike, the source gives them in different places.

Assays:
[1] = cited from earlier work; for solubility change with alcohol (in words): alcohol present in aqueous solution; for solubility in water (in words): at the isoelectric point
[2] = solubility of L-tryptophan in an ethanol-aqueous solution (Referential Example 1); assay type: physicochemical; conditions: pH 5.89, 20° to 75° C.
Procedure: The pH of the aqueous solution was adjusted to the isoelectric point (5.89), and the aqueous solution was prepared from distilled water and reagent grade ethanol. In FIG. 1, letters a, b, c and d represent the solubility curves of L-tryptophan for the ethanol solution of different compositions shown below. […]
a: Ethanol: 0 Distilled water: 100 (parts by volume) b: Ethanol: 30 Distilled water: 70 c: Ethanol: 50 Distilled water: 50 d: Ethanol: 70 Distilled water: 30

[3] = acid dissociation constant; listed as tryptophane; cited from earlier work

| SMILES | solubility change with alcohol (in words) [1] | solubility in water (in words) [1] | further results |
| --- | --- | --- | --- |
| C[C@H](N)C(=O)O [alanine] | decrease in solubility | – | – |
| N[C@@H](Cc1c[nH]c2ccccc12)C(=O)O [L-tryptophan] | increase in solubility | sparingly soluble in water at the isoelectric point | solubility, temperature dependence [2]: increases as the temperature goes up from 20 °C to 75 °C; solubility by adjustment of pH only ([1]; pH not less than 11 or not more than 2): 8 to 10 wt. %; increase of solubility on raising solution temperature ([1]; solution temperature raised to 60° C.): ≤ 2%; solubility in water (in words) ([1]; listed as tryptophane): very low solubility in water; pK1 [3]: 2.3 |
| N[C@@H](CSSC[C@H](N)C(=O)O)C(=O)O [cystine] | – | sparingly soluble in water at the isoelectric point | – |
| CSCC[C@H](N)C(=O)O [methionine] | – | sparingly soluble in water at the isoelectric point | – |
| NCCCC[C@H](N)C(=O)O [lysine] | – | highly soluble in water | – |
| N[C@@H](Cc1ccccc1)C(=O)O [phenylalanine] | increase in solubility | – | – |
